# Structures can show the parent of a compound that is named as a salt. Where two headings read alike, the source gives them in different places.
# Experiments:
# bovine coagulated blood = assay: Decoloring screening: heme eluted from bovine coagulated blood (OD420-OD700); conditions: decolorization; for 700 nm calibrated 420 nm Average: OD420 calibrated by OD700; for integrated value 500-700 nm Average: integrated absorbance 500-700 nm
# Procedure: A high-throughput screening system for evaluating the decoloring ability of various compounds was constructed. The screening system involved adding an aqueous solution of each compound to bovine coagulated blood and then measuring the absorbance of heme collected in the supernatant.
# Specifically, to bovine blood, an equal amount of 8% PFA solution was added, and reacted at 4° C. overnight. The mixed liquid was centrifuged at 1500×g for 5 minutes, and the supernatant containing PFA was discarded. Then, the same amount of PBS as the original volume of blood was added to prepare a coagulated blood sample. To 150 μL of 10 wt % aqueous solution of each compound, 50 μL of the coagulated blood sample was added, and reacted at 37° C. overnight. The reaction solution was centrifuged at 1500×g for 5 minutes, and then 100 μL of the supernatant was added to a plate so as to be subjected to absorbance measurement. A sample which is suspended in water instead of being dissolved in the water has a weak decoloring effect, but none the less has a high absorbance value. […]
# [1] = for 400 nm: OD at 400 nm of the chemical
pH (Table 4),Molecule,700 nm calibrated 420 nm Average (bovine coagulated blood),integrated value 500-700 nm Average (bovine coagulated blood),further results
5.68,"CCOC(=O)[C@H]1CC[C@H](O)CC1 [#0216, Ethyl trans-4-hydroxy-cyclohexanecarboxylate]",–,–,–
–,"C1CCC2=NCCCN2CC1 [#0594, 1,8-Diazabicyclo [5.4.0]-7-undecene]",3.13,1.94,Fluorescence quench Average (Serius): 0.54
–,"NCCCNCCNCCCN [#0277, N,N′-Bis(3-aminopropyl) ethylenediamine]",1.20,0.83,400 nm [1]: 0.053; pH ([…]): 13.1; Fluorescence quench Average (Serius; relative fluorescence): 0.71
–,"OCCN(CCO)CCN(CCO)CCO [#1537, N,N,N′,N′-Tetrakis(2-hydroxyethyl) ethylenediamine]",1.29,1.63,400 nm [1]: 0.048; pH ([…]): 11.7; Fluorescence quench Average (Serius; relative fluorescence): 0.66
–,c1cnccn1 [#1086],1.41,1.39,400 nm [1]: 0.051; pH ([…]): 8.6; Fluorescence quench Average (Serius; relative fluorescence): 0.67
–,"OCCCC1CCN(CCO)CC1 [#1226, 1-(2-Hydroxyethyl)-4-(3-hydroxypropyl) piperidine]",2.20,2.29,400 nm [1]: 0.05; pH ([…]): 14.1; Fluorescence quench Average (Serius; relative fluorescence): 0.76
3.92,"CC[n+]1ccccc1Br [#1562, 2-Bromo-1-ethylpyridinium tetrafluoroborate]",–,–,–
–,"CCN(CC)CCO [#1575, 2-Diethylamino-ethanol]",2.41,1.21,Fluorescence quench Average (Serius): 0.61
–,NCCCCCO [#0003],1.83,1.21,400 nm [1]: 0.052; pH ([…]): 12.5; Fluorescence quench Average (Serius; relative fluorescence): 0.63
2.61,"N#CCC(=O)O [#1569, Cyanoacetic acid]",–,–,–
–,OCCN1CC1 [#1061],1.14,0.91,Fluorescence quench Average (Serius): 0.80
4.22,"Cl.N=C(N)Nc1ccc(C(=O)O)cc1 [#1249, 4-Guanidino benzoic acid hydrochloride]",–,–,–
–,CN(CCCN)CCCN [#0380],2.62,1.58,Fluorescence quench Average (Serius; relative fluorescence): 0.62
–,"CCCCCCCCCCCC(=O)N(C)CC(=O)[O-].[Na+] [#1466, Sodium N- lauroylsarcosinate]",–,–,OD400 ([1]; Table 1): 0.05; pH (Table 1): 6.1
2.34,"O=C(O)CC(O)C(=O)O (racemic) [#1300, DL-Malic acid]",–,–,–
2.18,"Cl.NC1(C(=O)O)CCC1 [#0473, 1-Aminocyclobutanecarboxylic acid hydrochloride]",–,–,–
–,"CCCCCCCCC(=O)[O-].[Na+] [#0865, Sodium nonanoate]",–,–,OD400 ([1]; Table 1): 0.051; pH (Table 1): 8.9
–,"COc1ccc(CO)cc1OC [#1422, Veratryl alcohol]",1.46,1.28,400 nm [1]: 0.05; pH ([…]): 6.1; Fluorescence quench Average (Serius; relative fluorescence): 0.89
2.80,"CN1CCN(Cc2ccc(C(=O)O)cc2)CC1 [#0916, 4-[(4-Methyl-1-piperazinyl)methyl]benzoic acid dihydrochloride]",–,–,–

pH (Table 4),Molecule,700 nm calibrated 420 nm Average (bovine coagulated blood),integrated value 500-700 nm Average (bovine coagulated blood),further results
6.00,"CCCCCCC(O)CO (centres unmarked) [#1109, 1,2-Octanediol]",–,–,–
–,"CC(=O)O.CCCCCCCCCCCCN [#0627, Dodecylamine acetate]",2.21,1.74,400 nm [1]: 0.053; OD400 ([1]; Table 1): 0.053; pH (Table 1): 10.3; pH ([…]): 10.3; Fluorescence quench Average (Serius; relative fluorescence): 1.05
–,"NCCCCCCO [#0007, 6-Amino-1-hexanol]",2.66,1.76,400 nm [1]: 0.093; pH ([…]): 11.9; Fluorescence quench Average (Serius; relative fluorescence): 0.22
4.10,"Cl.NOCc1ccccc1 [#0429, O-Benzylhydroxylamine hydrochloride]",–,–,–
–,"C[n+]1ccc(-c2cc[n+](C)cc2)cc1 [#0652, 1,1′-Dimethyl-4,4′-bipyridinium dichloride]",2.01,2.01,Fluorescence quench Average (Serius): 0.42
–,"NCCCOCCCN [#0394, Bis(3-aminopropyl) ether]",3.27,1.85,400 nm [1]: 0.067; pH ([…]): 13.2; Fluorescence quench Average (Serius; relative fluorescence): 0.54
2.14,"O=C(O)[C@@H](O)c1ccccc1Cl [#0746, 2-Chloro-L-mandelic acid]",–,–,–
–,"CC(O)CN(CCN(CC(C)O)CC(C)O)CCN(CC(C)O)CC(C)O (centres unmarked) [#1105, N,N,N′,N″,N″-Pentakis(2-hydroxypropyl) diethylene-triamine]",1.20,1.05,400 nm [1]: 0.057; pH ([…]): 13.2; Fluorescence quench Average (Serius; relative fluorescence): 0.74
–,"NC[C@H](O)[C@@H](O)[C@H](O)[C@H](O)CO [#0956, D-Glucamine, reference compound]",–,–,OD400 ([1]; Table 3): 0.260; pH (Table 3): 12.3
3.08,"OCCCCCl [#1365, 4-Chloro-1-butanol (contains tetrahydrofuran)]",–,–,–
2.74,"CSCC[C@H](NC(C)=O)C(=O)O [#0350, N-Acetyl- L-methionine]",–,–,–
2.11,"N[C@@H](CS(=O)(=O)O)C(=O)O [#0745, L-cysteic acid]",–,–,–
–,"CC(=O)N(CC(O)CO)c1c(I)c(C(=O)NCC(O)CO)c(I)c(C(=O)NCC(O)CO)c1I (centres unmarked) [Histodenz ™, reference compound]",–,–,OD400 ([1]; Table 3): 0.054; pH (Table 3): 7.3
2.31,"OCCCCBr [#1366, 4-Bromo-1-butanol (contains tetrahydrofuran)]",–,–,–
2.21,"O=S(=O)(O)c1cccnc1 [#1165, Pyridine-3-sulfonic acid]",–,–,–
2.74,"O=C(O)C(C(=O)O)C1CCCC1 [#0762, Cyclopentyl malonic acid]",–,–,–
2.69,"O=C(O)CC(CC(=O)O)C(=O)O [#1094, 1,2,3-Propanetri-carboxylic acid]",–,–,–
2.75,"CSCCC(NC(C)=O)C(=O)O (racemic) [#0360, N-Acetyl- DL-methionine]",–,–,–
2.17,"CN(C)CCC(=O)O.Cl [#0702, 3-(Dimethylamino) propionic acid hydrochloride]",–,–,–

pH (Table 4),Molecule,700 nm calibrated 420 nm Average (bovine coagulated blood),integrated value 500-700 nm Average (bovine coagulated blood),further results
5.19,"F[N+]12CC[N+](CCl)(CC1)CC2 [#1608, N-Fluoro-N′-(chloromethyl) triethylenediamine bis (tetrafluoroborate)]",–,–,–
3.43,"C=CCC(=O)O [#0073, 3-Butenoic acid]",–,–,–
–,"Cl.O=C(O)CCP(CCC(=O)O)CCC(=O)O [#0197, Tris(2-carboxyethyl) phosphine hydrochloride]",4.28,3.89,Fluorescence quench Average (Serius): −0.05
3.66,"O=C(O)CCO [#0155, 3-Hydroxypropionic acid]",–,–,–
2.69,"O=C1O[C@H](CO)[C@@H](O)[C@H](O)[C@H]1O [#0963, D-(+)-Glucono-1,5-lactone]",–,–,–
2.86,"CC(=O)N[C@@H](CS)C(=O)O [#0346, N-Acetyl- L-cysteine]",–,–,–
2.22,"O=C(O)CCNCCNCCC(=O)O [#0936, Ethylenediamine-N,N′- dipropionic acid dihydrochloride]",–,–,–
–,"CC(C)(C)CC(C)(C)c1ccc(OCCOCC[N+](C)(C)Cc2ccccc2)cc1 [#0441, Benzethonium Chloride]",3.40,2.80,Fluorescence quench Average (Serius): 1.08
2.86,"O=C(O)CCCCCl [#0062, 5-Chlorovaleric acid]",–,–,–
2.68,"O=C(O)CC(S)C(=O)O (centres unmarked) [#1302, Thiomalic acid]",–,–,–
4.92,"O=C(O)/C=C/c1ccc(Cn2ccnc2)cc1 [#1108, Ozagrel hydrochloride hydrate]",–,–,–
2.67,"O=CNCC(=O)O [#0942, N-Formylglycine]",–,–,–
–,"[Cl-].c1ccc(C[P+](c2ccccc2)(c2ccccc2)c2ccccc2)cc1 [#0425, Benzyltriphenyl-phosphonium chloride]",1.14,0.83,Fluorescence quench Average (Serius; relative fluorescence): 0.35
2.39,"O=C(O)CCCCBr [#0074, 5-Bromovaleric acid]",–,–,–
2.63,"O=C(O)[C@H](O)[C@@H](O)[C@H](O[C@@H]1O[C@H](CO)[C@H](O)[C@H](O)[C@H]1O)[C@H](O)CO [#1010, Lactobionic acid]",–,–,–
–,"CCCCCCCCCCCCCCCC[N+](C)(C)C.[Cl-] [#1235, Hexadecyltrimethyl- ammonium chloride]",2.85,2.71,Fluorescence quench Average (Serius): 1.06
–,CCCCCCCCCCCCCC[N+](C)(C)Cc1ccccc1 [#0362],–,–,Fluorescence quench Average (Serius): 1.07
–,Dodecyldimethyl(3- sulfopropyl)ammonium [#0661],2.10,1.70,400 nm [1]: 0.051; OD400 ([1]; Table 1): 0.051; Fluorescence quench Average (Serius; relative fluorescence): 1.13

Molecule,pH (Table 4),700 nm calibrated 420 nm Average (bovine coagulated blood),integrated value 500-700 nm Average (bovine coagulated blood),further results
"Cl.NC1CCSC1=O (racemic) [#1213, DL-Homocysteinethiolactone hydrochloride]",2.31,–,–,–
